The results in this text go back to PMC8380212, “^18F-labeled tracers targeting fibroblast activation protein” (EJNMMI Radiopharmacy and Chemistry, 2021).

Series [1] concerns the target T1, FAP‐transfected HT‐1080‐FAP cells (Homo sapiens, UniProt Q12884).
T1 construct: expressed in transfected cells; host or cells: HT-1080 cells transfected with FAP (HT-1080-FAP)
T1 sequence (Q12884 1-760): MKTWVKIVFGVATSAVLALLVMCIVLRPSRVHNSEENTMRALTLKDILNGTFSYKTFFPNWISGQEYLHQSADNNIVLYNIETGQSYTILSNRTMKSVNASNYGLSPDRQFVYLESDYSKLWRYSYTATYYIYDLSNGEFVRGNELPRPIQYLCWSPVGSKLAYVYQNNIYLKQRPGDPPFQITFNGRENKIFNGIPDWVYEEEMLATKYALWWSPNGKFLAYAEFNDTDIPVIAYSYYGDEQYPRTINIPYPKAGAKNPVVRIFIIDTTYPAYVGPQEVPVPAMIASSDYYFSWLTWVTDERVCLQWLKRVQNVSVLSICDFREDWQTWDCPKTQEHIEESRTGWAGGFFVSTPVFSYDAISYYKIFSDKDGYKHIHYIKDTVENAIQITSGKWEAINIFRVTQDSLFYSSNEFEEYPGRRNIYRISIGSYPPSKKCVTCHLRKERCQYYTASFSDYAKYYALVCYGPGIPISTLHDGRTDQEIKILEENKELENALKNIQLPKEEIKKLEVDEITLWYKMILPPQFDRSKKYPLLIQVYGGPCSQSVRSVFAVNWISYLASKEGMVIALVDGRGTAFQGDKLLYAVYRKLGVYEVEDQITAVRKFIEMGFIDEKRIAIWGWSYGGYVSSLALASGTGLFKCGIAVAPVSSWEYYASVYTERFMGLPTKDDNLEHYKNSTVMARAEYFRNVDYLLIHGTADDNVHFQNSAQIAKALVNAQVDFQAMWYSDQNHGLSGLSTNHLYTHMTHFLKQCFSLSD
The experiment in a line: In vitro binding/uptake on FAP-transfected HT-1080-FAP cells. Format: cell-based. Particulars: HT1080-FAP cells. As to the method:
(§1) The binding properties of the FAPI derivatives were evaluated using the FAP‐transfected HT‐1080‐FAP and CD26 expressing HEK-CD26 cells. All cells were cultivated in Dulbecco's modified Eagle's medium (DMEM) containing 10% fetal calf serum (FCS) at 37 °C/5% carbon dioxide. Cells were seeded in 6-well plates and cultivated to a final confluence of approximately 80–90% (1.2 to 2.0 × 10^6 cells/well). After washing with FCS free medium, for each well ca. 3 kBq of the radiolabeled compound (10–20 GBq/µmol for [^18F]AlF-labeling) was added to the cells in FCS free medium. On completion of the individual incubation time, cells were washed with PBS and treated with 1.4 mL lysis buffer (0.3 m NaOH, 0.2% SDS) before being transferred to measuring tubes. Competition experiments were performed by co-incubation with the unlabeled precursor for 60 min. Radioactivity was determined in a Wizard Gamma Counter (Perkin Elmer), normalized to 10^6 cells and calculated as percentage of the applied dose (%AD). Each experiment was performed in triplicate.

A further series deals with T2, FAP (HT-1080-FAP cells) (Homo sapiens, UniProt Q12884).
T2 construct: expressed in transfected cells; host or cells: HT-1080 cells transfected with FAP (HT-1080-FAP)
T2 sequence (Q12884 1-760): T1 sequence (Q12884 1-760)
The experiment in a line: Competition experiments with unlabeled precursor on HT-1080-FAP cells. Format: binding. Particulars: co-incubation with unlabeled precursor for 60 min. The procedure: as §1

Series [2] is described as follows: Determination of logD values (1-octanol / PBS). Format: physicochemical. Particulars: 1-octanol / phosphate buffered saline, pH 7.4; radiolabeled tracer detected by radioactivity in 1-octanol and phosphate buffered saline. As to the method:
All experiments for the determination of logD values were performed in triplicate. For the determination by means of radioactivity, around 5 × 10^6 cpm in ca. 1 µL of radioactive stock solutions (water/acetonitrile 1:1) were added to 100 µL phosphate buffered saline (PBS, pH 7.4) and 100 µL of 1-octanol. The mixture was vortexed for 1 min, followed by 5 min of centrifugation for phase separation. A sample of each phase (10 or 50 µL) was measured for radioactivity per volume (Packard Cobra II Autogamma, GMI Inc., USA). In case of FAPI-72 and -73, the reference compounds [^19F]-FAPI-72 and -73 were dissolved in PBS at a concentration of 1 mg/mL. 50 µL of these solutions were each mixed with 50 µL 1-octanol and processed by vortexing and centrifugation as described above. 1 µL of each phase was analyzed by HPLC and the individual content of compound was determined by peak integration. The area under the peaks of the individual runs was used to calculate the log D value.
Fig. 1 Overview of the synthesized precursors discussed in this study. The corresponding log D values were determined by detection of the radiolabeled tracer in 1-octanol and phosphate buffered saline (pH 7). For values labeled with an asterix, the log D was calculated from the relative content of the non-radioactive reference standards in the 1-octanol and the water phase by HPLC analysis and peak integration TEXT PRINTED IN THE PICTURE: FAPI-42: LOG D: -1.63±0.06 | FAPI-52: LOG D: -1.90±0.02 | FAPI-72: LOG D: 1.20±0.01* | FAPI-73: LOG D: 1.13±0.05* | FAPI-74: LOG D: -2.42±0.03 | FAPI-75: LOG D: -3.36±0.12 | FAPI-76: LOG D: -2.86±0.07

The structures appear in SMILES notation.

Consider `N#C[C@@H]1CCCN1C(=O)CNC(=O)c1ccnc2ccc(OCCCN3CCN(C(=O)CN4CCN(CC(=O)O)CCN(CC(=O)O)CC4)CC3)cc12` [FAPI-74], for which the “uptake 10 min” value in series [1] (10 min incubation) is given as 27.2 ± 0.88 %AD/10^6 cells. Besides, the “uptake 60 min” value in series [1] (60 min incubation) is recorded as 29.7 ± 0.66 %AD/10^6 cells. Besides, the “uptake 120 min” value in series [1] (120 min incubation) was 30.39 ± 2.47 %AD/10^6 cells. Further, the concentration giving a half-maximal response (EC50) on FAP (HT-1080-FAP cells) is 4.2 nM. Besides, the pH-dependent lipophilicity (logD) in series [2] was -2.42 ± 0.03.
